The text below walks through data of paper PMC11371747, “The role of l-leucovorin uptake and metabolism in the modulation of 5-fluorouracil efficacy and antifolate toxicity” (Frontiers in Pharmacology, 2024).

One experiment deals with H28 cells. Nature of the experiment: Growth inhibition, SRB assay, H28 (MPM). To be noted: for IC50: H28, SRB, read-out: IC50, 72 h drug exposure. Format: cell-based, human. On the procedure:
(§1) Briefly, cells were seeded in triplicate in 96-well plates at their pre-established optimal density (CHO cells: 2,500 cells/100 μL; WiDr and HT29: 3,500 cells/100 μL; WiDr-LF/LV, LS174T: 5,000 cells/100 μL; CaCo2, CaCo2-LF/LV, H292, H28 and MSTO-211H: 6,000 cells/100 μL; H460, SW948 and SW1398: 7,000 cells/100 μL) and were allowed to attach for ∼ 24 h at 37°C in 5% CO2 and 100% humidified incubator. Thereafter, 100 μL of drug dilution without LV, or with 5 μM l-LV/5 μM d-LV/10 μM dL-LV (or any LV alone) were added. Cells were allowed to grow for 72 h at 37°C in 5% CO2 and 100% humidity. The t = 0 h control plate consisted of cells plated on the same day as the other cells, but after 24 h at 37°C in 5% CO2 and 100% humidity, only 100 μL medium was added and the cells were fixed immediately with 50% trichloroacetic acid (TCA) in milliQ water (25 μL per well) and put at 4°C for at least 1 h. Plates were washed five times with water and dried. Cells were stained with the SRB protein dye (0.4% (w/v) in 1% acetic acid. Excess dye was washed away four times with 1% acetic acid and plates were dried again. 200 μL of Tris (10 mM Tris (hydroxymethyl)-aminomethane in MQ) was added and optical density (OD) was read at 492 nm after mixing 2–3 min on a plate shaker.

The next experiment deals with CHO/C5 cells. Nature of the experiment: Growth inhibition, SRB assay, CHO/C5 (RFC-deficient). The format is cell-based, Chinese hamster. As for the experimental part:
as §1
On the technique in general: In SRB staining, fixed cells bind dye roughly in proportion to their protein.

Another experiment has as its system H292 cells. As to the kind of experiment: Growth inhibition, SRB assay, H292 (NSCLC). The format is cell-based, human. Particulars: for IC50: H292, SRB, read-out: IC50, 72 h drug exposure. On the procedure:
as §1

Experiment [1] deals with T1, reduced folate carrier (RFC/SLC19A1) (Homo sapiens, UniProt P41440).
T1 construct: CEM-7A cells, which display 30-fold RFC overexpression relative to wild-type CCRF-CEM cells; endogenous in cells; host or cells: CEM-7A (CCRF-CEM variant, RFC+++ 30-fold)
T1 sequence (P41440 1-591): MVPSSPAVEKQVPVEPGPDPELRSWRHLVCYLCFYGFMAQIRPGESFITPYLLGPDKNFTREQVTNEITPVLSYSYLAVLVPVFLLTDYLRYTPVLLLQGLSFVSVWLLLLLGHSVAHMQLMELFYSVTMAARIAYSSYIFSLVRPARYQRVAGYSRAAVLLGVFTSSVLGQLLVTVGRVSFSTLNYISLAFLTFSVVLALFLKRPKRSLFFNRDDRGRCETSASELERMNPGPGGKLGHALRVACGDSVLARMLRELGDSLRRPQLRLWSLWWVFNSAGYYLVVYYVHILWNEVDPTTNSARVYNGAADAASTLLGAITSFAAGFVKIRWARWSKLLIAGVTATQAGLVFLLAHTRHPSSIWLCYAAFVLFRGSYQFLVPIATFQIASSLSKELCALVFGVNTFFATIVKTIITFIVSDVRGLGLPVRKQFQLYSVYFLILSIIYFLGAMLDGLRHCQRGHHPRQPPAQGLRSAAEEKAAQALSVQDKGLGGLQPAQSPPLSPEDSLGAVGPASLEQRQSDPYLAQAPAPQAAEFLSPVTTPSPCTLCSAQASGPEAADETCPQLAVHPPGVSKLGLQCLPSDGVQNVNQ
Nature of the experiment: Inhibition of RFC-mediated [3H]-l-LV influx in CEM-7A cells. The format is cell-based.

Another experiment relates to CHO/C5-PCFT cells. Nature of the experiment: Growth inhibition, SRB assay, CHO/C5-PCFT (PCFT-transfected). The format is cell-based, Chinese hamster. On the procedure: as §1
Setting [2] is: Cricetulus griseus, antifolate alone.

Like-named read-outs stand apart in the source and are kept apart here.

By IC50 is commonly meant the concentration that gives 50% inhibition. In the case of `C#CCC(Cc1cnc2nc(N)nc(N)c2n1)c1ccc(C(=O)N[C@@H](CCC(=O)O)C(=O)O)cc1` (some centres unmarked) [PLX, pralatrexate], the IC50 with H28 cells (antifolate + 5 µM l-LV) was 14.6 µM; in the experiment with H28 cells (Homo sapiens, NCI-H28, 72 h, antifolate alone), 0.011 ± 0.0006 µM; in the experiment with CHO/C5 cells (setting [2]), 9.5 µM; with CHO/C5 cells (antifolate + 5 µM l-LV), 48.3 µM; in the experiment with H292 cells (antifolate + 5 µM l-LV) it was 19.1 µM; with H292 cells (Homo sapiens, NCI-H292, 72 h, antifolate alone), 0.0037 ± 0.0003 µM. In addition, the IC50 is 6.8 µM in the experiment on CHO/C5-PCFT cells (setting [2]) and 87.5 µM with CHO/C5-PCFT cells (antifolate + 5 µM l-LV). Besides, the “Relative protection by 5 µM l-LV” value in the experiment on H28 cells (H28, ratio IC50 antifolate + LV / IC50 antifolate) is listed as 1834 ± 108; in the experiment with H292 cells (H292, ratio IC50 antifolate + LV / IC50 antifolate) it was 4,778 ± 1795. Further, the “50% inhibition of [3H]-l-LV influx (RFC), fold lower concentration than l-LV” value in experiment [1] is recorded as 2.5 fold.
